What follows are molecules tested on NL4-3 strain of HIV-1 (assay: Cyto-protection (CellTiter-Glo viability) assay of MT4 cells infected with NL4-3 virus; inhibition of HIV replication). Details: Human immunodeficiency virus 1, NL43, 120 h; concentration leading to 50% of cyto-protection; MT4 cells infected with NL4-3 virus; 5 days incubation; CellTiter-Glo; read-out: EC50.
Format: cell-based
Procedure: Preparation of Virus stock of the NL4-3 strain of HIV-1 (Adachi et al, J Virol, 1986, 59(2):284-91).
The virus was prepared as described in Lopez et al (Lopez et al, Proc Natl Acad Sci USA., 2006, 103(40):14947-52, by transfecting 2×10^6 293 T cells (CRL-1573, ATCC) with following modifications: 6 μg of NL4-3 proviral DNA molecular clone were mixed with Fugene 6 transfection reagent from Roche, and used according to manufacturer's instructions. Forty eight hours later, transfected cell supernatants were harvested, filtered through 0.45-μm-pore-size filters, quantified for HIV-1 p24 antigen by using a Innotest HIV antigen mAb assay (Ingen) according to manufacturer's instructions, and used in infection experiments.
Serial dilutions of compounds to be tested were prepared in complete RPMI medium from 10 mM DMSO stock solutions, and I in 96 well Falcon 353072 Microtest[…]distributed in a volume of 20™ tissue culture plate, in order to get 0.5% DMSO final concentration in each well, after the addition of infected cells. Control wells contained also 0.5% DMSO final concentration but no compound.
MT4 cells (from the NIH AIDS Research and Reference Reagent Program) in RPMI complete medium were counted (10×10^6 cells per well in Falcon 353047 Multiwell™ 24 well) and infected for 2 hours at 37°, at a multiplicity of infection (moi) of 0.0001-0.00001. Cells were then centrifuged 3 min at 3000 rpm, and washed two times in 1 ml PBS to remove viruses that have not entered in cells. Infected cells were resuspended in complete RPMI at 1.25×10^6 cells/ml and 80 μl of infected cells were distributed in each well containing compound to be tested or control wells. The plates were then incubated at 37° for 5 days.
Assay used to measure the inhibition of HIV replication by the compounds (according to Gregg S. Jones et al., Antimicrobial Agents and Chemotherapy, 2009, 53 (3): 1194-1203).
After 5 days of incubation, microplates were equilibrated to room temperature for 30 mn and then 50 μl of CellTiter-Glo reagent (Promega Biosciences, Inc., Madison Wis., USA) were added to each well. Cell lysis was carried out at room temperature during 10 min, 150μl of lysates were transferred in Packard Optiplate 96 well, and luminescence was read on a Fluoroskan (Thermo Scientific).
The EC50, or effective concentration 50, is the concentration of compound leading to 50% of cyto-protection in a Cell-Titer-Glo® viability assay based on MT4 cells infected with NL4-3 virus (table 1).

Row | Compound | EC50
1 | Cn1nc(C2=CCCC2(C)C)c(-c2ccc3c(c2)CCCO3)c1C(OC(C)(C)C)C(=O)O (stereo not drawn) [Example 32, 2-(tert-butoxy)-2-[4-(3,4-dihydro-2H-1-benzopyran-6-yl)-3-(5,5-dimethylcyclopent-1-en-1-yl)-1-methyl-1H-pyrazol-5-yl]acetic acid] | 3.2 µM
2 | C=C(C)c1nn(C)c(C(OC(C)(C)C)C(=O)O)c1-c1ccc2c(c1)CCCO2 (stereo not drawn) [Example 22, 2-(tert-butoxy)-2-[4-(3,4-dihydro-2H-1-benzopyran-6-yl)-1-methyl-3-(prop-1-en-2-yl)-1H-pyrazol-5-yl]acetic acid] | 8 µM
3 | CC1C=C(c2nn(C)c(C(OC(C)(C)C)C(=O)O)c2-c2ccc3c(c2)CCCO3)CCC1 (stereo not drawn) [Example 17, 2-(tert-butoxy)-2-[4-(3,4-dihydro-2H-1-benzopyran-6-yl)-1-methyl-3-(3-methylcyclohex-1-en-1-yl)-1H-pyrazol-5-yl]acetic acid] | 0.74 µM
4 | C/C=C/c1nn(C)c(C(OC(C)(C)C)C(=O)O)c1-c1ccc2c(c1)CCCO2 (stereo not drawn) [Example 29, 2-(tert-butoxy)-2-[4-(3,4-dihydro-2H-1-benzopyran-6-yl)-1-methyl-3-[(1E)-prop-1-en-1-yl]-1H-pyrazol-5-yl]acetic acid] | 1.4 µM
5 | Cn1nc(C2=CCC(C)(C)CC2)c(-c2ccc3c(c2)CCCO3)c1C(OC(C)(C)C)C(=O)O (stereo not drawn) [Example 14, 2-(tert-butoxy)-2-[4-(3,4-dihydro-2H-1-benzopyran-6-yl)-3-(4,4-dimethylcyclohex-1-en-1-yl)-1-methyl-1H-pyrazol-5-yl]acetic acid] | 1.7 µM
6 | Cn1nc(C2CCCC2)c(-c2ccc3c(c2)CCCO3)c1C(OC(C)(C)C)C(=O)O (stereo not drawn) [Example 19, 2-(tert-butoxy)-2-[3-cyclopentyl-4-(3,4-dihydro-2H-1-benzopyran-6-yl)-1-methyl-1H-pyrazol-5-yl]acetic acid] | 3.9 µM
7 | Cn1nc(/C=C/C2CC2)c(-c2ccc3c(c2)CCCO3)c1C(OC(C)(C)C)C(=O)O (stereo not drawn) [Example 27, 2-(tert-butoxy)-2-{3-[(E)-2-cyclopropylethenyl]-4-(3,4-dihydro-2H-1-benzopyran-6-yl)-1-methyl-1H-pyrazol-5-yl}acetic acid] | 5.3 µM
8 | CC1CCC=C1c1nn(C)c(C(OC(C)(C)C)C(=O)O)c1-c1ccc2c(c1)CCCO2 (stereo not drawn) [Example 26, 2-(tert-butoxy)-2-[4-(3,4-dihydro-2H-1-benzopyran-6-yl)-1-methyl-3-(5-methylcyclopent-1-en-1-yl)-1H-pyrazol-5-yl]acetic acid] | 0.63 µM
9 | Cn1nc(C2=CC(O)CCC2)c(-c2ccc3c(c2)CCCO3)c1C(OC(C)(C)C)C(=O)O (stereo not drawn) [Example 43, 2-(tert-butoxy)-2-[4-(3,4-dihydro-2H-1-benzopyran-6-yl)-3-(3-hydroxycyclohex-1-en-1-yl)-1-methyl-1H-pyrazol-5-yl]acetic acid] | 9.2 µM
10 | Cn1nc(-c2cccs2)c(-c2ccc3c(c2)CCCO3)c1C(OC(C)(C)C)C(=O)O (stereo not drawn) [Example 3, 2-(tert-butoxy)-2-[4-(3,4-dihydro-2H-1-benzopyran-6-yl)-1-methyl-3-(thiophen-2-yl)-1H-pyrazol-5-yl]acetic acid] | 0.29 µM
11 | Cn1nc(-c2ccccc2)c(-c2ccc3c(c2)CCCO3)c1C(OC(C)(C)C)C(=O)O (stereo not drawn) [Example 2, 2-(tert-butoxy)-2-[4-(3,4-dihydro-2H-1-benzopyran-6-yl)-1-methyl-3-phenyl-1H-pyrazol-5-yl]acetic acid] | 0.68 µM
12 | Cn1nc(-c2ccncc2)c(C2=CCC(C)(C)CC2)c1C(OC(C)(C)C)C(=O)O (stereo not drawn) [Example 39, 2-(tert-butoxy)-2-[4-(4,4-dimethylcyclohex-1-en-1-yl)-1-methyl-3-(pyridin-4-yl)-1H-pyrazol-5-yl]acetic acid] | 5.7 µM
13 | Cn1nc(-c2cc3c(s2)CCC3)c(-c2ccc3c(c2)CCCO3)c1C(OC(C)(C)C)C(=O)O (stereo not drawn) [Example 37, 2-(tert-butoxy)-2-(3-{4H,5H,6H-cyclopenta[b]thiophen-2-yl}-4-(3,4-dihydro-2H-1-benzopyran-6-yl)-1-methyl-1H-pyrazol-5-yl)acetic acid] | 3.3 µM
14 | Cn1nc(C2=CCCCC2)c(-c2ccc3c(c2)CCCO3)c1C(OC(C)(C)C)C(=O)O (stereo not drawn) [Example 13, 2-(tert-butoxy)-2-[3-(cyclohex-1-en-1-yl)-4-(3,4-dihydro-2H-1-benzopyran-6-yl)-1-methyl-1H-pyrazol-5-yl]acetic acid] | 0.17 µM
15 | Cn1nc(C2=CCCCCC2)c(-c2ccc3c(c2)CCCO3)c1C(OC(C)(C)C)C(=O)O (stereo not drawn) [Example 16, 2-(tert-butoxy)-2-[3-(cyclohept-1-en-1-yl)-4-(3,4-dihydro-2H-1-benzopyran-6-yl)-1-methyl-1H-pyrazol-5-yl]acetic acid] | 0.87 µM
16 | Cc1c(-c2c(-c3cccs3)nn(C)c2C(OC(C)(C)C)C(=O)O)cc(F)c2c1CCCO2 (stereo not drawn) [Example 10, 2-(tert-butoxy)-2-[4-(8-fluoro-5-methyl-3,4-dihydro-2H-1-benzopyran-6-yl)-1-methyl-3-(thiophen-2-yl)-1H-pyrazol-5-yl]acetic acid] | 1.1 µM
17 | Cn1nc(C2CCCCC2)c(-c2ccc3c(c2)CCCO3)c1C(OC(C)(C)C)C(=O)O (stereo not drawn) [Example 20, 2-(tert-butoxy)-2-[3-cyclohexyl-4-(3,4-dihydro-2H-1-benzopyran-6-yl)-1-methyl-1H-pyrazol-5-yl]acetic acid] | 1.4 µM
18 | CC(C)C1CC=C(c2c(-c3ccccc3)nn(C)c2C(OC(C)(C)C)C(=O)O)CC1 (stereo not drawn) [Example 41, 2-(tert-butoxy)-2-{1-methyl-3-phenyl-4-[4-(propan-2-yl)cyclohex-1-en-1-yl]-1H-pyrazol-5-yl}acetic acid] | 6 µM
19 | Cn1nc(-c2cccs2)c(C2=CCC(C)(C)CC2)c1C(OC(C)(C)C)C(=O)O (stereo not drawn) [Example 6, 2-(tert-butoxy)-2-[4-(4,4-dimethylcyclohex-1-en-1-yl)-1-methyl-3-(thiophen-2-yl)-1H-pyrazol-5-yl]acetic acid] | 0.47 µM
20 | Cn1nc(-c2ccncc2)c(-c2ccc3c(c2)CCCO3)c1C(OC(C)(C)C)C(=O)O (stereo not drawn) [Example 40, 2-(tert-butoxy)-2-[4-(3,4-dihydro-2H-1-benzopyran-6-yl)-1-methyl-3-(pyridin-4-yl)-1H-pyrazol-5-yl]acetic acid] | 6 µM
21 | Cn1nc(-c2cccs2)c(-c2cc(F)c3c(c2)CCCO3)c1C(OC(C)(C)C)C(=O)O (stereo not drawn) [Example 42, 2-(tert-butoxy)-2-[4-(8-fluoro-3,4-dihydro-2H-1-benzopyran-6-yl)-1-methyl-3-(thiophen-2-yl)-1H-pyrazol-5-yl]acetic acid] | 1.8 µM
22 | Cn1nc(-c2ccccc2)c(C2=CCC(C)(C)CC2)c1C(OC(C)(C)C)C(=O)O (stereo not drawn) [Example 1, 2-(tert-butoxy)-2-[4-(4,4-dimethylcyclohex-1-en-1-yl)-1-methyl-3-phenyl-1H-pyrazol-5-yl]acetic acid] | 0.48 µM
23 | Cn1nc(-c2nccs2)c(-c2ccc3c(c2)CCCO3)c1C(OC(C)(C)C)C(=O)O (stereo not drawn) [Example 8, 2-(tert-butoxy)-2-[4-(3,4-dihydro-2H-1-benzopyran-6-yl)-1-methyl-3-(1,3-thiazol-2-yl)-1H-pyrazol-5-yl]acetic acid] | 3.7 µM
24 | Cc1c(-c2c(-c3cccs3)nn(C)c2C(OC(C)(C)C)C(=O)O)ccc2c1CCCO2 (stereo not drawn) [Example 7, 2-(tert-butoxy)-2-[1-methyl-4-(5-methyl-3,4-dihydro-2H-1-benzopyran-6-yl)-3-(thiophen-2-yl)-1H-pyrazol-5-yl]acetic acid] | 0.41 µM
25 | Cn1nc(CC2CCCC2)c(-c2ccc3c(c2)CCCO3)c1C(OC(C)(C)C)C(=O)O (stereo not drawn) [Example 21, 2-(tert-butoxy)-2-[3-(cyclopentylmethyl)-4-(3,4-dihydro-2H-1-benzopyran-6-yl)-1-methyl-1H-pyrazol-5-yl]acetic acid] | 9.3 µM
26 | Cn1nc(-c2ccsc2)c(C2=CCC(C)(C)CC2)c1C(OC(C)(C)C)C(=O)O (stereo not drawn) [Example 5, 2-(tert-butoxy)-2-[4-(4,4-dimethylcyclohex-1-en-1-yl)-1-methyl-3-(thiophen-3-yl)-1H-pyrazol-5-yl]acetic acid] | 0.27 µM

Same assay, conditions: Human immunodeficiency virus 1, NL43, MT4, 120 h

Row | Compound | EC50
27 | Cn1nc(C2=CC3CCC2C3)c(-c2ccc3c(c2)CCCO3)c1C(OC(C)(C)C)C(=O)O (stereo not drawn) [Example 15, 2-(3-{bicyclo[2.2.1]hept-2-en-2-yl}-4-(3,4-dihydro-2H-1-benzopyran-6-yl)-1-methyl-1H-pyrazol-5-yl)-2-(tert-butoxy)acetic acid] | 0.55 µM

Reference: patent US9260395B2, “Inhibitors of viral replication, their process of preparation and their therapeutical uses” (priority 2012, dated 2016)
